Experiments:
[1] = system: breast cancer cells (MCF-7); assay: MTT cytotoxicity assay, MCF-7; assay type: cell-based; details: Homo sapiens, MCF7, MCF-7 cells, 48 h
Description: (§1) All of the synthesized compounds were screened for their cytotoxic effect against three different human cancer cells, namely breast cancer cells (MCF-7), lung cancer cells (A549), and colorectal adenocarcinoma cells (Caco2), using the MTT cytotoxic assay. […] Then, 3-[4,5-dimethylthiazol-2-yl]-2,5-diphenyl tetrazolium bromide (MTT) was added.

[2] = system: colorectal adenocarcinoma cells (Caco2); assay: MTT cytotoxicity assay, Caco2; assay type: cell-based; details: Homo sapiens, Caco-2, 48 h
Description: as §1

[3] = system: lung cancer cells (A549); assay: MTT cytotoxicity assay, A549; assay type: cell-based, human
Description: as §1

[4] = system: mammary gland epithelial cell line MCF-10a; assay: Cytotoxicity toward normal cells MCF-10a; assay type: cell-based, human; details: for SI (selectivity index): MCF-10a IC50 relative to MCF-7 IC50
[5] = Cytotoxicity toward normal cells MCF-10a; assay type: cell-based, human; details: human, MCF-10a mammary gland epithelial cells (normal), MCF-10a normal cell line
[6] = system: MCF-7 cells; assay: Annexin-V/PI apoptosis assay; assay type: cell-based, human; details: MCF-7, 24 h; for Annexin V/PI quadrant, remaining (necrosis): Figure 3, quadrant not given, assigned by elimination; for average increment at the early phase of apoptosis / average increment in late-stage apoptosis: average for the treated groups; for percentage of Annexin V/PI-stained cells: both early and late phases of apoptosis, untreated 1.76%
Description: To assess the apoptotic potential, MCF-7 cells were treated with compound 4i or 4f for 24 h and then assayed for Annexin-V/PI (propidium iodide) binding according to the reported protocol. […] At the early phase of apoptosis, the average increment for the treated groups was around 27%, while it was around 14% in late-stage apoptosis.
Apoptosis was measured using an Annexin V-FITC Apoptosis Detection Kit and analyzed using FACSCalibur flow cytometer.

[7] = system: caspase-3/7 in MCF-7 cells; assay: Caspase-3/7 Green flow cytometry assay; assay type: cell-based, human; details: untreated controls 0.43%
Description: Caspases are essential factors in apoptotic cell death since they play a key role in maintaining homeostasis, and their activation induces apoptosis.
Caspase-3/7 activity was calculated using Caspase-3/7 Green Flow Cytometry Assay Kit Catalog # C10427.

[8] = system: MCF-7 cells; assay: Cell cycle analysis by DNA flow cytometry; assay type: cell-based, human; details: MCF-7, 24 h; for increase in the percentage of cells in the G0-G1 phase: compared with the control (53.89%)
Description: An encouraging strategy for cancer therapy is targeting the cell cycle, according to the reported method. In this study, compounds 4i and 4f were tested—using a DNA flow cytometry assay—for their effects on the cell cycle of MCF-7 cells (Figure 2). […] Simultaneously, there was a significant reduction in the percentage of the cell population in the G2/M phase—32% and 46% for cells treated with compound 4f or 4i, respectively, compared with controls. The decline in the proportion of cells in the G2/M phase as well as the increase in the cell population in the G0-G1 and S phases indicate a reduction in cell cycle progression in MCF-7 cells.

Row | Compound | melting point | IC50 [1] | IC50 [2] | IC50 ([3]; 48 h) | IC50 ([3]; Homo sapiens, A549, 48 h) | SI (selectivity index) [4] | IC50 [5] | Annexin V/PI quadrant, remaining (necrosis) [6] | average increment at the early phase of apoptosis [6] | average increment in late-stage apoptosis [6] | percentage of Annexin V/PI-stained cells [6] | levels of active caspase-3/7 expression [7] | reduction in the percentage of the cell population in the G2/M phase ([8]; compared with controls) | increase in the percentage of cells in the G0-G1 phase [8] | IC50 ([4]; MCF-10a normal cell line) | increase in the percentage of the cell population in the S phase ([8]; compared with control)
1 | O=S(=O)(Nc1ncccn1)c1ccc(Nc2ncc(F)c(Nc3ccc4[nH]ncc4c3)n2)cc1 [Compound 4a, 4-((4-((1H-indazol-5-yl)amino)-5-fluoropyrimidin-2-yl)amino)-N-(pyrimidin-2-yl)benzenesulfonamide] | 343 to 345 °C | 2.96 ± 0.14 µM | 10.3 ± 0.51 µM | 3.2 ± 0.18 µM | 3.3 µM | – | – | – | – | – | – | – | – | – | – | –
2 | Fc1cnc(Nc2ccc(N3CCOCC3)cc2)nc1Nc1ccc2[nH]ncc2c1 [Compound 4f, 5-fluoro-N4-(1H-indazol-5-yl)-N2-(4-morpholinophenyl) pyrimidine-2,4-diamine] | – | 1.63 ± 0.08 µM | 22.3 ± 1.11 µM | – | 12.8 ± 0.71 µM | 14.5 | 23.7 ± 1.17 µM | 3.23% | around 27% | around 14% | about 47% | 19% | 32% | around 7% | – | –
3 | NS(=O)(=O)c1ccc(Nc2nccc(Nc3ccc4[nH]ncc4c3)n2)cc1 [Compound 4g, 4-((4-((1H-indazol-5-yl)amino)pyrimidin-2-yl)amino) benzenesulfonamide] | – | 4.68 ± 0.22 µM | 6.91 ± 0.34 µM | – | 11.2 ± 0.62 µM | – | – | – | – | – | – | – | – | – | – | –
4 | COc1cc(Nc2nccc(Nc3ccc4[nH]ncc4c3)n2)cc(OC)c1OC [Compound 4i, N4-(1H-indazol-5-yl)-N2-(3,4,5-trimethoxyphenyl) pyrimidine-2,4-diamine] | – | 1.84 ± 0.09 µM | 4.99 ± 0.25 µM | – | 2.31 ± 0.13 µM | 16.03 | 29.5 µM | 5.92% | around 27% | around 14% | about 47% | 26.5% | – | around 7% | 29.5 ± 1.46 µM | 3%

Second part, led by results:

Row | melting point | Compound | IC50 [1] | IC50 [2] | IC50 ([3]; 48 h) | IC50 ([3]; Homo sapiens, A549, 48 h) | SI (selectivity index) [4] | IC50 [5] | Annexin V/PI quadrant, remaining (necrosis) [6] | average increment at the early phase of apoptosis [6] | average increment in late-stage apoptosis [6] | percentage of Annexin V/PI-stained cells [6] | levels of active caspase-3/7 expression [7] | reduction in the percentage of the cell population in the G2/M phase ([8]; compared with controls) | increase in the percentage of cells in the G0-G1 phase [8] | IC50 ([4]; MCF-10a normal cell line) | increase in the percentage of the cell population in the S phase ([8]; compared with control)
5 | 285 to 287 °C | O=S(=O)(Nc1nccs1)c1ccc(Nc2ncc(F)c(Nc3ccc4[nH]ncc4c3)n2)cc1 [Compound 4b, 4-((4-((1H-indazol-5-yl)amino)-5-fluoropyrimidin-2-yl)amino)-N-(thiazol-2-yl)benzenesulfonamide] | 14.3 ± 0.68 µM | 31.2 ± 1.55 µM | – | 52.9 ± 2.92 µM | – | – | – | – | – | – | – | – | – | – | –
6 | 352 to 354 °C | COc1cc(Nc2ncc(F)c(Nc3ccc4[nH]ncc4c3)n2)cc(OC)c1OC [Compound 4c, 5-fluoro-N4-(1H-indazol-5-yl)-N2-(3,4,5-trimethoxyphenyl)pyrimidine-2,4-diamine] | 29.1 ± 1.4 µM | 67.8 ± 3.36 µM | – | 58.8 ± 3.25 µM | – | – | – | – | – | – | – | – | – | – | –
7 | 286 to 288 °C | NS(=O)(=O)c1cccc(Nc2ncc(F)c(Nc3ccc4[nH]ncc4c3)n2)c1 [Compound 4d, 3-((4-((1H-indazol-5-yl)amino)-5-fluoropyrimidin-2-yl)amino)benzenesulfonamide] | 4.8 ± 0.23 µM | 9.63 ± 0.48 µM | – | 13.5 ± 0.74 µM | – | – | – | – | – | – | – | – | – | – | –
8 | 303 to 305 °C | NS(=O)(=O)c1ccc(Nc2ncc(F)c(Nc3ccc4[nH]ncc4c3)n2)cc1 [Compound 4e, 4-((4-((1H-indazol-5-yl)amino)-5-fluoropyrimidin-2-yl)amino)benzenesulfonamide] | 25.1 ± 1.2 µM | 7.17 ± 0.36 µM | – | 46.6 ± 2.57 µM | – | – | – | – | – | – | – | – | – | – | –
9 | 211 to 213 °C | O=S(=O)(Nc1nccs1)c1ccc(Nc2nccc(Nc3ccc4[nH]ncc4c3)n2)cc1 [Compound 4h, 4-((4-((1H-indazol-5-yl)amino)pyrimidin-2-yl)amino)-N-(thiazol-2-yl)benzenesulfonamide] | 21.1 ± 1.01 µM | 17.3 ± 0.86 µM | – | 23.5 ± 1.3 µM | – | – | – | – | – | – | – | – | – | – | –

Source: PMC10180490, “New Indazol-Pyrimidine-Based Derivatives as Selective Anticancer Agents: Design, Synthesis, and In Silico Studies” (Molecules, 2023)
